Laboratory results from patent US11980598B2, “N-(2-(substituted-naphth-1-yl)ethyl) substituted amide compound, preparation and uses thereof” (BEIJING GREATWAY PHARMACEUTICAL TECHNOLOGY CO., LTD., priority 2017, dated 2024).

What was measured:
Assay type in all cases: in vivo
chronic stress rat [1] = assay: Chronic unpredictable stress model of rat: open-field activity test; conditions: stress rats, day 28, 5 min
Procedure: (§1) Animals: SD rats, male, weighing 150-180 g, SPF grade.
(§2) Formulation and administration mode of drugs: All drugs for the test were suspended and dispersed with a 0.5% aqueous solution of CMC-Na, and shaken well before use. The rats were administered by i.g. at a volume of 10 mL/kg.
(§3) Rats were acclimatized for 3 days after purchase. First, 48 h of sucrose training was performed. After the training, a sucrose baseline test was performed. The rats were randomly and evenly grouped according to sucrose preference. Then, (dl) a 4-week chronic unpredictable stress (CUS) procedure was performed with the following stress methods: (1) food deprivation (fasting); (2) water deprivation; (3) stroboflash; (4) overnight illumination; (5) wet feeding (200 ml of water was added to 150 g of sawdust bedding); (6) noise stimulation (110 dB), 1 h; (7) swimming in cold water (the water temperature was 10° C.); (8) cage tilt (45 degrees of inclination); (9) tail pinch (at 1 cm away from the tail root) for 6 min; (10) restraint for 1-2 h. One of the above stress methods was used randomly every day, but water deprivation and fasting were separated. The corresponding drugs (including the blank control group and the positive drug group) were given 1 h before the stress in the morning every day. Behavior test was performed after the end of the chronic stress. d25, sucrose preference; d28, open-field; d31, novelty-suppressed feeding test.
On the 28th day of the stress program, the rats were placed in the middle compartment of an open chamber, and a 60 W light bulb was placed 45 cm directly above them. The activities of the rats were observed within 5 minutes, including the number of times crossing a compartment horizontally (the number of times crossing into an adjacent compartment with three or more claws), and the number of times rearing (the number of times the forelimbs are more than 1 cm off the ground). Note: the test environment of the test should be kept as quiet as possible; the rats should be placed in the same position and direction each time; and the animal's excretion should be removed after each test.

SD rats [2] = assay: Anxiety behavior model of repeatedly administrated rat: novelty-suppressed feeding test; conditions: D12
Procedure: (§4) The requirements for test animals, drug formulation and administration were the same as those of the rat chronic mild stress model.
(§5) Instruments: Vogel drinking anxiety device for rat and O-maze device for rat were manufactured by Shanghai XinRuan Company. The rat feeding chamber was a home-made white plastic box (60×45×25 cm).
(§6) The rats were administrated continuously by i.g. once a day. A novelty-suppressed feeding test, a Vogel drinking conflict test, and an O-maze test were performed on a different day, respectively. Each behavior test was performed at 9:00-12:00, and the administration time was 16:00-17:00. The test process was as follows: D12, novelty-suppressed feeding test (animals were fasted for 48 hours before the test); D18, Vogel drinking conflict test (animals were banned from water for 48 hours before the test); D21, O-maze test.
Common paddings with a thickness of 1.5 cm were placed at the floor of the rat feeding chamber, and six equal-sized food pellets were placed in the center. During the test, the rats were individually placed in a fixed position of the feeding chamber, and observed for 5 minutes. The time from rat entry to the start of biting or chewing the food was recorded with a stopwatch.

chronic stress rat [3] = assay: Chronic unpredictable stress model of rat: sucrose preference test; conditions: for Sucrose preference (%) Before modeling: baseline before modeling; for Sucrose preference (%) After 4 weeks of administration: stress rats
Procedure: as §1, §2, §3
Rats were acclimatized for 3 days after purchase. The rats were trained to give sucrose aqueous solution for 48 h without food and water supply, only 1% aqueous solution of sucrose was given for the first 24 h, and 1% aqueous solution of sucrose and tap water were simultaneously given for the next 24 h. After the end of the training, the rats were fed with normal food and water for 3 days, and then a sucrose preference baseline was determined: after fasting and water deprivation for 14 h, rats were allowed to drink freely two different bottles of water, one of which was 1% aqueous solution of sucrose and the other was tap water. The intakes (g) of rats from these two bottles within 1 hour were measured to calculate the sucrose preference. Sucrose preference (%)=intake of aqueous solution of sucrose/(intake of aqueous solution of sucrose+intake of tap water)×100%. On the 25th day of the stress program, the same method was used to perform the sucrose preference test again to calculate the sucrose preference.

SD rats [4] = assay: Anxiety behavior model of repeatedly administrated rat: O-maze test; conditions: D21, 5 minutes
Procedure: as §4, §5, §6
An O-maze device was placed in the center of a dark room and illuminated with an infrared light during the test. The animal was placed in the center of a closed arm of an O-maze track, timed for 5 minutes, and the activity of the rat in the maze was monitored by an infrared camera. Animals in each group were given a single intragastric administration 60 min before the test. Observation indicators were the number of times the rat entered the open arm and the accumulated dwell time in the open arm.

chronic stress rat [5] = assay: Chronic unpredictable stress model of rat: novelty-suppressed feeding test; conditions: stress rats, day 31
Procedure: as §1, §2, §3
On the 29th day of the stress program, the rats were fasted for 48 hours (not water deprivation) and then subjected to a novelty-suppressed feeding test (d31). The rats were placed in a novelty-suppressed feeding chamber with an open top. The bottom of the chamber was covered with a 2 cm thick sawdust. In the center of the chamber were placed 12 food balls of the same size. At the same time as the rats were put in, the latency of the rats to start eating within 5 min was calculated. The criterion for eating was that the animal started chewing food instead of just sniffing or toying with food. Rats that had not eaten within 5 minutes were recorded to have a feeding latency of 5 minutes. The test environment of the test should be kept as quiet as possible; the rats should be placed in the same position and direction each time; the environment of the test was preferably different from the breeding environment, and the light intensity of the test environment was greater than that of the breeding environment.

SMILES	Number of times crossing a compartment horizontally (chronic stress rat [1]; 10 mg/kg i.g. daily)	Number of times rearing (chronic stress rat [1]; 10 mg/kg i.g. daily)	Number of times crossing a compartment horizontally (chronic stress rat [1]; 20 mg/kg i.g. daily)	Number of times rearing (chronic stress rat [1]; 20 mg/kg i.g. daily)	Number of times crossing a compartment horizontally (chronic stress rat [1]; 40 mg/kg i.g. daily)	Number of times rearing (chronic stress rat [1]; 40 mg/kg i.g. daily)	Feeding latency (SD rats [2]; 10 mg/kg i.g. once a day) [s]	Feeding latency (SD rats [2]; 20 mg/kg i.g. once a day) [s]	Feeding latency (SD rats [2]; 40 mg/kg i.g. once a day) [s]	Sucrose preference (%) Before modeling (chronic stress rat [3]; group later dosed 20 mg/kg) [%]	Sucrose preference (%) After 4 weeks of administration (chronic stress rat [3]; 10 mg/kg i.g. daily) [%]	Sucrose preference (%) After 4 weeks of administration (chronic stress rat [3]; 20 mg/kg i.g. daily) [%]	Sucrose preference (%) After 4 weeks of administration (chronic stress rat [3]; 40 mg/kg i.g. daily) [%]	Dwell time in the open arm (SD rats [4]; 10 mg/kg i.g.) [s]	Number of times entering the open arm (SD rats [4]; 10 mg/kg i.g.)	Dwell time in the open arm (SD rats [4]; 20 mg/kg i.g.) [s]	Number of times entering the open arm (SD rats [4]; 20 mg/kg i.g.)	Dwell time in the open arm (SD rats [4]; 40 mg/kg i.g.) [s]	Number of times entering the open arm (SD rats [4]; 40 mg/kg i.g.)	Feeding latency (chronic stress rat [5]; 10 mg/kg i.g. daily)	other results
COc1ccc2cccc(CCNC(C)=O)c2c1 [Agomelatine, reference compound]	33.4 ± 4.2	18.1 ± 1.1	33.9 ± 2.4	16.7 ± 1.8	38.9 ± 3.6	17.3 ± 1.1	208 ± 26	163 ± 25	124 ± 25	65.6 ± 10.1	84.3 ± 3.6	66.6 ± 6.7	76.1 ± 5.3	126 ± 15	2.25 ± 0.4	196 ± 30	3.1 ± 0.8	170 ± 29	6.2 ± 1.0	248 ± 21 ^ s	Feeding latency (chronic stress rat [5]; 20 mg/kg i.g. daily): 164 ± 26 s; Feeding latency (chronic stress rat [5]; 40 mg/kg i.g. daily): 130 ± 17 s
[2H]C([2H])([2H])Oc1cc2c(CCNC(C)=O)cccc2cc1Cl [Example 1, N-(2-(6-chloro-7-deuteromethoxy-naphthalen-1-yl)ethyl)acetamide]	36.4 ± 4.2	14.6 ± 1.7	36.5 ± 2.9	15.9 ± 1.1	34.9 ± 3.0	17 ± 1.5	141 ± 17	124 ± 18	120 ± 14	60.1 ± 4.4	78.4 ± 4.4	78.8 ± 6.1	83.3 ± 1.9	201 ± 17	8.8 ± 0.9	245 ± 6	10.89 ± 0.7	171 ± 27	6.3 ± 1.1	145 ± 23 s	Number of times crossing a compartment horizontally (chronic stress rat [1]; 5 mg/kg i.g. daily): 36.8 ± 4.4; Number of times rearing (chronic stress rat [1]; 5 mg/kg i.g. daily): 15.1 ± 1.3; Feeding latency (SD rats [2]; 5 mg/kg i.g. once a day): 232 ± 23 s; Sucrose preference (%) Before modeling (chronic stress rat [3]; group later dosed 5 mg/kg): 55.5 ± 7.8%; Sucrose preference (%) After 4 weeks of administration (chronic stress rat [3]; 5 mg/kg i.g. daily): 80.4 ± 3.1 %; Dwell time in the open arm (SD rats [4]; 5 mg/kg i.g.): 131 ± 30 s; Number of times entering the open arm (SD rats [4]; 5 mg/kg i.g.): 4.8 ± 0.9; Feeding latency (chronic stress rat [5]; 5 mg/kg i.g. daily): 188 ± 21 s; Feeding latency (chronic stress rat [5]; 20 mg/kg i.g. daily): 115 ± 16 s; Feeding latency (chronic stress rat [5]; 40 mg/kg i.g. daily): 117 ± 14 s
